Read-outs that look alike come from different tables or passages of the source.
Experiments:
[1] = system: P. falciparum 3D7 parasites; assay: Standard 72 h antiplasmodial viability assay, 3D7; assay type: cell-based, Plasmodium falciparum; settings: for Pf3D7 LD50 (72 h): sorbitol-treated ring stage, viability in next cycle (~72 h); for Pf3D7 LD50 (72-h): supplement CSV
Method: P. falciparum parasites used in this study were propagated in O+ human erythrocytes (Australian Red Cross Blood Service) in RPMI-1640, supplemented with GlutaMAX, 25 mM HEPES (Thermo Fisher Scientific), 5% (v/v) human serum (Australian Red Cross Blood Service), 0.25% (w/v) AlbuMAX II (Thermo Fisher Scientific), 10 μM D-glucose, 22 μg/mL gentamycin (Sigma-Aldrich), and 0.5 mM hypoxanthine (Sigma-Aldrich) and incubated at 37 °C in an atmosphere of 1% O2, 5% CO2, and 94% N2. Cultures were monitored by Giemsa staining of methanol-fixed blood smears. Culture medium was replaced at least every 48 h, and parasitemia was maintained below 10% to ensure health of cultures. The GFP-DD reporter strain was kindly provided by Dr. Paul Gilson, Dr. Brendan Crabb, and Dr. Mauro F. Azevedo (Burnet Institute).
(§1) For standard assays of antiplasmodial activity, sorbitol-treated ring stage parasites were incubated with the drugs for 72 h and viability was assessed in the second cycle.[12] Drug pulse assays were performed as described previously.[47] For short pulse assays, tightly synchronized early ring stage parasites (1–3 h after invasion) at 0.2% hematocrit and 1–2% parasitemia were subjected to 3 h drug pulse at 37 °C and returned to culture until parasites reached trophozoite stage of the following cycle. Cells were then stained with 2 μM Syto-61 (Thermo Fisher Scientific), and their fluorescence was measured by flow cytometry (FACSCanto II cytometer; Becton Dickinson). Data were gated and analyzed using FCS Express software (version 3) to determine parasitemia of each sample. Viability represents the parasitemia normalized to untreated and “kill treated” controls, where “kill treated” refers to samples treated with 2 μM DHA for 48–72 h. Interactions between DHA and MPI-1 or MPI-4 against the K13 mutant (DHA resistant) Cam3.II P. falciparum strain, exposed to a 3 h pulsed treatment, were determined at 4 h after invasion as described previously.[12]

HepG2 cells = assay: HepG2 cellular toxicity (CellTiter-Glo, 72 h); assay type: cell-based, human; settings: for HepG2 LD50 (72 h): 72 h incubation, mean ± SEM or half range, 2–4 experiments; for HepG2 LD50( 72-h): supplement CSV
HCT116 cells = assay: HCT116 cellular toxicity (CellTiter-Glo, 72 h); assay type: cell-based, human; settings: for HCT116 LD50 (72 h): 72 h incubation, mean ± SEM or half range, 2–4 experiments; for HCT116 LD50 (72-h): supplement CSV
Method: HCT-116 and HepG2 cells were obtained from the American Type Culture Collection and maintained as recommended by the supplier. Cells were cultured in the ATCC-formulated McCoy’s 5A medium or DMEM (Life Technologies, CA), supplemented with fetal bovine serum to a final concentration of 9–10%, and incubated at 37 °C in an atmosphere of 95% air and 5% CO2. Cellular toxicity assays were performed using Promega’s CellTiter-Glo assay system. Varying concentrations of the test compounds in 5% DMSO/95% PBS were dispensed into a 384-well plate and cells added to each well. The plates were incubated at 37 °C for 72 h, and the CellTiter-Glo assay to assess cell viability was performed as described by the manufacturer (Promega).
For human cell line activity assays, cellular toxicity assays were performed as described previously.[23],[48]

[2] = system: P. falciparum Cam3.II^R539T; assay: 3 h pulsed exposure viability assay, K13 mutant early rings; assay type: cell-based, Plasmodium falciparum; settings: for Cam3.II^R539T LD50 (3 h): early ring (1–3 h p.i.), 3 h pulse, viability in next cycle, mean ± SEM, n=3; for Cam3.IIR539T LD50 (3-h): supplement CSV
Method: as §1

[3] = system: P. falciparum Cam3.II^Rev; assay: 3 h pulsed exposure viability assay, K13 wild-type revertant early rings; assay type: cell-based, Plasmodium falciparum; settings: for Cam3.II^Rev LD50 (3 h): early ring (1–3 h p.i.), 3 h pulse, viability in next cycle, mean ± SEM, n=3; for Cam3.IIRev LD50 (3-h): supplement CSV
Method: as §1

[4] = system: human constitutive proteasome and immunoproteasome catalytic subunits; assay: BMV037 active site probe competition, purified human 20S proteasomes; assay type: biochemical; settings: for subunit specificity by BMV037 probe labeling, human constitutive proteasome and immunoproteasome: compounds 1 h, probe 2 h
[5] = system: Pf20S proteasome subunits of bortezomib-resistant parasites; assay: BMV037 active site probe competition, bortezomib-resistant parasites; assay type: biochemical, P. falciparum; settings: compounds 1 h
Method: Figure 3 Active site probe analysis of the proteasome subunit specificity of the selected compounds in 3D7 parent and bortezomib-resistant parasites. Purified Pf20S proteasome from wild-type 3D7 (A) and bortezomib-resistant (C) parasites or wild-type 3D7 (B) and bortezomib-resistant (D) trophozoite-infected erythrocytes were treated with compounds for 1 h, and activity-based probe (BMV037) labeling was performed (postlysis for the trophozoite samples). Fluorescent gel scans reveal subunits that remain active after treatment.
P. falciparum culture, purified Pf20S proteasomes, human constitutive proteasomes, or immunoproteasomes (Boston Biochem) were incubated with test compounds at 37 °C for 1 h. Treated parasite lysates (10 μg), Pf20S proteasomes (80 nM), human constitutive proteasomes (20 nM), or immuno-20S proteasomes (20 nM) were labeled with BMV037 (10 μM) at 37 °C for 2 h. Samples were mixed with SDS loading buffer and heated at 95 °C for 5 min. Samples for P. falciparum and human immuno-20S were run on 4–12% Bis-Tris acrylamide gels using MES SDS running buffer (Thermo Fisher Scientific). Human constitutive 20S samples were run on a 10% Bis-Tris acrylamide gel using MOPS SDS running buffer (Thermo Fisher Scientific). Gels were imaged at the Cy5 channel on a Gel Doc XR+ Documentation System (Bio-Rad) or an Amersham Typhoon Trio imager (GE Healthcare Life Sciences).

[6] = system: Pf20S proteasome β1, β2, β5 subunits; assay type: biochemical, P. falciparum
[7] = system: bortezomib-resistant 3D7 B1 line (clone B1a); assay: 72 h viability assay, bortezomib-resistant B1 line / clone B1a; assay type: cell-based, Plasmodium falciparum; settings: for bortezomib-resistant 3D7 B1 line LD50 (72 h): ring stage; for Bortezomib-resistant3D7 B1 LD50 (72-h): supplement CSV
Method: as §1
Prior to selection, an aliquot of the parental line was stocked as a reference for subsequent whole genome sequencing analysis. Several independent clones of P. falciparum 3D7 parasite line were cultured in Petri dishes exposed to increasing drug pressure for ∼30 weeks. Parasites were cloned by limiting dilution. For parasite extraction and genomic DNA isolation, cultures were scaled up to at least 4–5% parasitaemia, lysed in saponin, and genomic DNA was isolated using ISOLATE II Genomic DNA kit (Bioline). DNA libraries for each gDNA sample were prepared for sequencing using the Nextera XT kit as described previously.[50] Libraries were clustered and run on an Illumina HiSeq 2500 using the RapidRun mode, sequencing 100 base pairs in depth on either end. Paired-end reads were either aligned to the P. falciparum 3D7 reference genome (PlasmoDB version 13.0).

[8] = compounds 1 h, purified Pf20S or infected erythrocytes

SMILES | Pf3D7 LD50 (72 h) ([1]; mean ± SEM, n=3) | Pf3D7 LD50 (72-h) [1] | HepG2 LD50 (72 h) (HepG2 cells) | HepG2 LD50( 72-h) (HepG2 cells) | HCT116 LD50 (72 h) (HCT116 cells) | HCT116 LD50 (72-h) (HCT116 cells) | Cam3.II^R539T LD50 (3 h) [2] | Cam3.IIR539T LD50 (3-h) [2] | Cam3.II^Rev LD50 (3 h) [3] | Cam3.IIRev LD50 (3-h) [3] | subunit specificity by BMV037 probe labeling, human constitutive proteasome and immunoproteasome [4] | BMV037 labeling of the β5 active site in bortezomib-resistant parasites [5] | subunit specificity by BMV037 probe labeling, wild-type 3D7 [6, 8] | bortezomib-resistant 3D7 B1 line LD50 (72 h) ([7]; mean ± SEM, n=3) | Bortezomib-resistant3D7 B1 LD50 (72-h) [7] | other results
CC(=O)N1CCC[C@@H]1C(=O)N[C@@H](C)C(=O)N[C@@H](Cc1ccccc1)B(O)O [MPI-1] | 0.12 ± 0.01 µM | 0.12 ± 0.01 µM | 6.7 ± 3.2 µM | 6.7 ± 3.2 µM | 0.79 ± 0.01 µM | 0.79 ± 0.01 µM | 0.82 ± 0.06 µM | 0.82 ± 0.06 µM | 0.9 ± 0.1 µM | 0.9 ± 0.1 µM | preferentially targeted the β5 subunits | still able to prevent BMV037 labeling of the β5 active site | preferentially inhibited binding of the probe to the β5 subunit | 0.23 ± 0.04 µM | 0.23 ± 0.04 µM | binding of the BMV037 probe to β5c after treatment ([4]; 10 μM): did not completely ablate binding of the probe to β5c
CC(C)C[C@H](NC(=O)[C@H](Cc1ccccc1)NC(=O)Cc1ccc(O)cc1)B(O)O [MPI-4] | 0.061 ± 0.007 µM | 0.061 ± 0.007 µM | 0.04 ± 0.01 µM | 0.04 ± 0.01 µM | 0.025 ± 0.014 µM | 0.025 ± 0.014 µM | 0.16 ± 0.01 µM | 0.16 ± 0.01 µM | 0.18 ± 0.02 µM | 0.18 ± 0.02 µM | preferential inhibition of the β1 and β5 subunits | did not prevent labeling of the β5 active site | inhibited both β2 and β5 activities | 0.077 ± 0.001 µM | 0.077 ± 0.001 µM | BMV037 labeling of the β2 active site in bortezomib-resistant parasites [5]: completely inhibit BMV037 labeling of the β2 active site; cross-resistance of the bortezomib-resistant parasite line (B1) ([7]; growth inhibition, versus 3D7): retained sensitivity
CC(C)C[C@H](NC(=O)[C@H](Cc1ccccc1)NC(=O)c1cnccn1)B(O)O [bortezomib, reference compound] | 0.06 ± 0.01 µM | 0.06 ± 0.01 µM | 0.03 ± 0.02 µM | 0.03 ± 0.02 µM | 0.006 ± 0.001 µM | 0.006 ± 0.001 µM | 0.12 ± 0.02 µM | 0.12 ± 0.02 µM | 0.18 ± 0.06 µM | 0.18 ± 0.06 µM | preferentially inhibits the β1 and β5 subunits | – | – | – | 1.3 ± 0.1 µM | IC50 ([1]; Plasmodium falciparum, 3D7, dose–response profiles, n = 3, read-out: 50% viability inhibitory concentration against 3D7 parasites): ~0.06 µM; LD50 (72 h), 3D7 parent ([1]; bortezomib, wild-type parent clone, mean ± SEM, n=3): 0.06 ± 0.01 µM; BMV037 competition profile in bortezomib-resistant parasites [5]: unable to prevent binding of the probe; subunit specificity by BMV037 probe labeling, wild-type 3D7 [6]: preferential inhibition of the β5 activity; LD50 (72 h), 3D7 B1a ([7]; bortezomib, resistant clone B1a, mean ± SEM, n=3): 1.3 ± 0.1 µM

Reference: paper PMC6257627, “Target Validation and Identification of Novel Boronate Inhibitors of the Plasmodium falciparum Proteasome” (Journal of Medicinal Chemistry, 2018)
